Assays:
monoubiquitinated PCNA = test: AlphaLISA assay measuring monoubiquitinated PCNA in MDA-MB-436; assay type: cell-based; conditions: Homo sapiens, read-out: Alpha LISA IC50
Description: Table 1 also indicates IC50 values for exemplary compounds in an AlphaLISA assay measuring monoubiquitinated PCNA in a BRCA1 mutant cell line (MDA-MB-436; column 7).

USP1-UAF1 = USP1-UAF1 (Homo sapiens, UniProt O94782); test: Ubiquitin Rhodamine assay for USP1-UAF1 activity; assay type: biochemical
Experimental: Certain compounds of the disclosure were assessed for USP1-UAF1 activity in a Ubiquitin Rhodamine assay as described in Example 135.

[1] = tested on: MDA-MB-436 (BRCA1 mutant) cell line; test: Viability assay in BRCA1 mutant cell line MDA-MB-436; assay type: cell-based; conditions: Homo sapiens, MDA-MB-436, viability, BRCA1 mutant MDA-MB-436; read-out: MDA-MB-436 rel IC50
Description: (§1) Table 1 also indicates IC50 values in a viability assay for a non-isogenic pair of BRCA1 mutant (column 5—MDA-MB-436) and BRCA1 WT (column 6—HCC1954) cell lines. These values indicate the effect of treatment with compound on cell survival.

[2] = tested on: HCC1954 (BRCA1 WT) cell line; test: Viability assay in BRCA1 WT cell line HCC1954; assay type: cell-based; conditions: Homo sapiens, read-out: HCC 1954 IC50 rel IC50
Description: as §1

USP1-UAF1, sequence (O94782 whole entry): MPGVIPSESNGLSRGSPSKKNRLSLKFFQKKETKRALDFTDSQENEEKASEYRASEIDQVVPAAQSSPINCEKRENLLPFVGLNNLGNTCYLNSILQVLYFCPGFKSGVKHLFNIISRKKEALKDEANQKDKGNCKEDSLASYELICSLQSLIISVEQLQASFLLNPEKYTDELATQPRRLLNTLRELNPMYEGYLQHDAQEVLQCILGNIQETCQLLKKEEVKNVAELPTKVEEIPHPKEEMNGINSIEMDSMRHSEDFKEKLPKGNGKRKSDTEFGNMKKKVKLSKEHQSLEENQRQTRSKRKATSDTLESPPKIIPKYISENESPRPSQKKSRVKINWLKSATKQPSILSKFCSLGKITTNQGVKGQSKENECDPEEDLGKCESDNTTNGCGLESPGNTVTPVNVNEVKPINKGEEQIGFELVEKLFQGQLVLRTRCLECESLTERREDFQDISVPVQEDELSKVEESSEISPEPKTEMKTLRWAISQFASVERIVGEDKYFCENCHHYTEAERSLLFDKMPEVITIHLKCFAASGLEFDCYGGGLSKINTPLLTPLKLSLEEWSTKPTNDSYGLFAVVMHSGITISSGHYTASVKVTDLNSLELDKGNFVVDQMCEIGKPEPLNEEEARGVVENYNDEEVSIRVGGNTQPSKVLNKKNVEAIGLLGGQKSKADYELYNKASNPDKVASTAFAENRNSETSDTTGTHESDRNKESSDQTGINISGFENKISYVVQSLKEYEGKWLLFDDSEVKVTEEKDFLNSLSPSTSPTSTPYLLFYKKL
USP1-UAF1, sequence (Q8TAF3 whole entry partner): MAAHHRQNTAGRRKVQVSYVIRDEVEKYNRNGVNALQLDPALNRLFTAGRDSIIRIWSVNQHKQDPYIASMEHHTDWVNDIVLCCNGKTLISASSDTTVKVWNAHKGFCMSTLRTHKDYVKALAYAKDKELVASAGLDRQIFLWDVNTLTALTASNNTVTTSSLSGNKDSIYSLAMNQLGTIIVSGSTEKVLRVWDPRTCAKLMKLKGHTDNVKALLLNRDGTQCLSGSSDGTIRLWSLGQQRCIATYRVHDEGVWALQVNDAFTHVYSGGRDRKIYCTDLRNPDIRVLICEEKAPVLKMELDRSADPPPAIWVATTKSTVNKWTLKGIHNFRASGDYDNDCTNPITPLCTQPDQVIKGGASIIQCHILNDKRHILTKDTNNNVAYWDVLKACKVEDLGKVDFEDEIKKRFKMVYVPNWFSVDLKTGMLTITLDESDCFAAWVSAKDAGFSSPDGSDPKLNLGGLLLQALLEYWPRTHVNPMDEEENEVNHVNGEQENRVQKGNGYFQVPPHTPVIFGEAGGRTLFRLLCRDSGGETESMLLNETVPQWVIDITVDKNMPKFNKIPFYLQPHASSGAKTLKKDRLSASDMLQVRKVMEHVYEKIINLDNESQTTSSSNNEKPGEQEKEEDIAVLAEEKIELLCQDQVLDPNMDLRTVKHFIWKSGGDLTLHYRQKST

| Compound | IC50 (monoubiquitinated PCNA) [µM] | IC50 (USP1-UAF1) [µM] | IC50 [1] [µM] | IC50 [2] [µM] |
| --- | --- | --- | --- | --- |
| CCOc1ncnc(C2CC2)c1-c1ncc2[nH]cc(Cc3ccc(-c4nc(C(F)(F)F)cn4C)cc3)c2n1 [Compound 111, 2-(4-cyclopropyl-6-ethoxy-pyrimidin-5-yl)-7-[[4-[1-methyl-4-(trifluoromethyl)imidazol-2-yl]phenyl]methyl]-5H-pyrrolo[3,2-d]pyrimidine] | < 0.1 | 0.03 to 0.1 | < 0.1 | ≥ 10 |
| Cn1cc(C(F)(F)F)nc1-c1ccc(Cc2c[nH]c3cnc(-c4c(C5CC5)ncnc4C4CC4)nc23)cc1 [Compound 193, 2-(4,6-dicyclopropylpyrimidin-5-yl)-7-[[4-[1-methyl-4-(trifluoromethyl)imidazol-2-yl]phenyl]methyl]-5H-pyrrolo[3,2-d]pyrimidine] | < 0.1 | < 0.03 | < 0.1 | ≥ 10 |
| CC(C)c1ccccc1-c1ncc2[nH]cc(C(C)(O)c3ccc(-c4nc(C(F)(F)F)cn4C)cc3)c2n1 (centres unmarked) [Compound 48, 1-[2-(2-isopropylphenyl)-5H-pyrrolo[3,2-d]pyrimidin-7-yl]-1-[4-[1-methyl-4-(trifluoromethyl)imidazol-2-yl]phenyl]ethanol] | < 0.1 | < 0.03 | < 0.1 | ≥ 10 |
| COc1ncnc(C2CC2)c1-c1ncc2[nH]cc(Cc3ccc(-c4nc(C(F)(F)F)cn4C4COC4)cc3)c2n1 [Compound 154, 2-(4-cyclopropyl-6-methoxy-pyrimidin-5-yl)-7-[[4-[1-(oxetan-3-yl)-4-(trifluoromethyl)imidazol-2-yl]phenyl]methyl]-5H-pyrrolo[3,2-d]pyrimidine] | 0.1 to 0.25 | 0.03 to 0.1 | < 0.1 | ≥ 10 |
| COc1ncnc(C(C)C)c1-c1ncc2[nH]cc(Cc3ccc(-c4nc(C(F)(F)F)cn4C)cc3)c2n1 [Compound 105, 2-(4-isopropyl-6-methoxy-pyrimidin-5-yl)-7-[[4-[1-methyl-4-(trifluoromethyl)imidazol-2-yl]phenyl]methyl]-5H-pyrrolo[3,2-d]pyrimidine] | < 0.1 | < 0.03 | < 0.1 | ≥ 10 |
| COc1ncnc(C(C)(C)C)c1-c1ncc2[nH]cc(Cc3ccc(-c4nc(C(F)(F)F)cn4C)cc3)c2n1 [Compound 124, 2-(4-tert-butyl-6-methoxy-pyrimidin-5-yl)-7-[[4-[1-methyl-4-(trifluoromethyl)imidazol-2-yl]phenyl]methyl]-5H-pyrrolo[3,2-d]pyrimidine] | 0.1 to 0.25 | 0.03 to 0.1 | < 0.1 | ≥ 10 |
| CNCc1[nH]c2cnc(-c3c(OC)ncnc3C3CC3)nc2c1Cc1ccc(-c2nc(C(F)(F)F)cn2C)cc1 [Compound 159, 1-[2-(4-cyclopropyl-6-methoxy-pyrimidin-5-yl)-7-[[4-[1-methyl-4-(trifluoromethyl)imidazol-2-yl]phenyl]methyl]-5H-pyrrolo[3,2-d]pyrimidin-6-yl]-N-methyl-methanamine] | 0.1 to 0.25 | 0.1 to 10 | 0.1 to 0.25 | 0.25 to 10 |
| COc1ncnc(C2CC2)c1-c1ncc2c(n1)c(Cc1ccc(-c3nc(C(F)(F)F)cn3C)cc1)cn2C(C)C [Compound 91] | 0.1 to 0.25 | 0.1 to 10 | 0.1 to 0.25 | ≥ 10 |
| COc1ncnc(C2CC2)c1-c1ncc2c(n1)c(Sc1ccc(-c3nc(C(F)(F)F)cn3C)cc1)cn2C [Compound 166] | 0.25 to 10 | 0.1 to 10 | 0.1 to 0.25 | ≥ 10 |
| COc1ncnc(C2CC2)c1-c1nc(C(F)(F)F)c2[nH]cc(Cc3ccc(-c4nc(C(F)(F)F)cn4C)cc3)c2n1 [Compound 121, 2-(4-cyclopropyl-6-methoxy-pyrimidin-5-yl)-7-[[4-[1-methyl-4-(trifluoromethyl)imidazol-2-yl]phenyl]methyl]-4-(trifluoromethyl)-5H-pyrrolo[3,2-d]pyrimidine] | < 0.1 | < 0.03 | < 0.1 | ≥ 10 |
| COc1cccc(OC)c1-c1ncc2[nH]nc(Cc3ccc(-c4nc(C(F)(F)F)cn4C)cc3)c2n1 [Compound 136] | 0.25 to 10 | < 0.03 | 0.1 to 0.25 | ≥ 10 |
| COc1ncnc(C2CC2)c1-c1nc(C(F)(F)F)c2[nH]nc(Cc3ccc(-c4nc(C(F)(F)F)cn4C)cc3)c2n1 [Compound 114, 5-(4-cyclopropyl-6-methoxy-pyrimidin-5-yl)-3-[[4-[1-methyl-4-(trifluoromethyl)imidazol-2-yl]phenyl]methyl]-7-(trifluoromethyl)-1H-pyrazolo[4,3-d]pyrimidine] | < 0.1 | < 0.03 | < 0.1 | ≥ 10 |
| CN1CC(n2cc(C(F)(F)F)nc2-c2ccc(Cc3c[nH]c4cnc(-c5cccnc5OC(F)F)nc34)cc2)C1 [Compound 20, 2-[2-(difluoromethoxy)-3-pyridyl]-7-[[4-[1-(1-methylazetidin-3-yl)-4-(trifluoromethyl)imidazol-2-yl]phenyl]methyl]-5H-pyrrolo[3,2-d]pyrimidine] | < 0.1 | 0.1 to 10 | 0.1 to 0.25 | ≥ 10 |
| COc1ncnc(C(C)(C)C)c1-c1ncc2c(n1)c(Cc1ccc(-c3nc(C(F)(F)F)cn3C)cc1)nn2C [Compound 96] | 0.1 to 0.25 | 0.03 to 0.1 | 0.1 to 0.25 | ≥ 10 |
| COc1ncnc(C2CC2)c1-c1ncc2[nH]cc(C(O)(c3ccc(-c4nc(C(F)(F)F)cn4C)cc3)C(C)C)c2n1 (centres unmarked) [Compound 199] | 0.1 to 0.25 | 0.1 to 10 | 0.1 to 0.25 | 0.25 to 10 |
| COCCn1cc(Cc2ccc(-c3nc(C(F)(F)F)cn3C)cc2)c2nc(-c3ccccc3C(C)C)ncc21 [Compound 83, 2-(2-isopropylphenyl)-5-(2-methoxyethyl)-7-[[4-[1-methyl-4-(trifluoromethyl)imidazol-2-yl]phenyl]methyl]pyrrolo[3,2-d]pyrimidine] | < 0.1 | < 0.03 | < 0.1 | ≥ 10 |
| COc1nc(C)nc(C2CC2)c1-c1ncc2[nH]cc(Cc3ccc(-c4nc(C(F)(F)F)cn4C)cc3)c2n1 [Compound 142, 2-(4-cyclopropyl-6-methoxy-2-methylpyrimidin-5-yl)-7-(4-(1-methyl-4-(trifluoromethyl)-1H-imidazol-2-yl)benzyl)-5H-pyrrolo[3,2-d]pyrimidine] | < 0.1 | 0.03 to 0.1 | < 0.1 | ≥ 10 |
| COCCc1[nH]c2cnc(-c3c(OC)ncnc3C3CC3)nc2c1Cc1ccc(-c2nc(C(F)(F)F)cn2C)cc1 [Compound 195, 2-(4-cyclopropyl-6-methoxy-pyrimidin-5-yl)-6-(2-methoxyethyl)-7-[[4-[-methyl-4-(trifluoromethyl)imidazol-2-yl]phenyl]methyl]-5H-pyrrolo[3,2-d]pyrimidine] | < 0.1 | < 0.03 | < 0.1 | ≥ 10 |
| COc1ncnc(C2CC2)c1-c1ncc2[nH]nc(Cc3ccc(-c4nc(C(F)(F)F)cn4C4CC4)cc3)c2n1 [Compound 206] | < 0.1 | < 0.03 | < 0.1 | 0.25 to 10 |
| Cn1cc(C(F)(F)F)nc1-c1ccc(Cc2c[nH]c3cnc(-c4c(OC(F)F)ncnc4C4CC4)nc23)cc1 [Compound 138, 2-[4-cyclopropyl-6-(difluoromethoxy)pyrimidin-5-yl]-7-[[4-[1-methyl-4-(trifluoromethyl)imidazol-2-yl]phenyl]methyl]-5H-pyrrolo[3,2-d]pyrimidine] | < 0.1 | < 0.03 | < 0.1 | ≥ 10 |
| CC(C)c1ccccc1-c1cc2c(CN3CCN(c4nc(C(F)(F)F)cn4C)CC3)c[nH]c2cn1 [Compound 71] | 0.25 to 10 | 0.1 to 10 | 0.25 to 10 | 0.25 to 10 |
| COc1ncnc(C2CC2)c1-c1ncc2[nH]cc(Cc3ccc(-c4nc(C(F)(F)F)cn4C)cc3C)c2n1 [Compound 203, 2-(4-cyclopropyl-6-methoxy-pyrimidin-5-yl)-7-[[2-methyl-4-[1-methyl-4-(trifluoromethyl)imidazol-2-yl]phenyl]methyl]-5H-pyrrolo[3,2-d]pyrimidine] | < 0.1 | < 0.03 | < 0.1 | ≥ 10 |
| COc1ncnc(C2CC2)c1-c1ncc2[nH]cc(Cc3ccc(-c4nc(C#N)cn4C)cc3)c2n1 [Compound 31, 2-[4-[[2-(4-cyclopropyl-6-methoxy-pyrimidin-5-yl)-5H-pyrrolo[3,2-d]pyrimidin-7-yl]methyl]phenyl]-1-methyl-imidazole-4-carbonitrile] | 0.25 to 10 | 0.1 to 10 | 0.25 to 10 | ≥ 10 |
| COc1ccnc(C2CC2)c1-c1ncc2[nH]cc(Cc3ccc(-c4nc(C(F)(F)F)cn4C)cc3)c2n1 [Compound 161] | 0.1 to 0.25 | 0.03 to 0.1 | < 0.1 | ≥ 10 |
| COc1ncnc(C2CC2)c1-c1ncc2[nH]cc(Sc3ccc(-c4nc(C(F)(F)F)cn4C)cc3)c2n1 [Compound 180] | 0.1 to 0.25 | 0.1 to 10 | 0.1 to 0.25 | ≥ 10 |
| CC(C)Oc1ncnc(C2CC2)c1-c1ncc2[nH]cc(Cc3ccc(-c4nc(C(F)(F)F)cn4C)cc3)c2n1 [Compound 118, 2-(4-cyclopropyl-6-isopropoxy-pyrimidin-5-yl)-7-[[4-[1-methyl-4-(trifluoromethyl)imidazol-2-yl]phenyl]methyl]-5H-pyrrolo[3,2-d]pyrimidine] | < 0.1 | < 0.03 | < 0.1 | ≥ 10 |
